Laboratory results as given in publication PMC5150661 (Journal of Medicinal Chemistry, 2016).

How the values were obtained:
[1] = 1% DMSO, nephelometry; for Sol2.0: 0.01 M HCl (approximately pH 2.0); for Sol6.5: pH 6.5 phosphate buffer
[2] = format: in vitro ADME; conditions: liver microsomes
[3] = Mouse exposure study after oral administration; format: in vivo, male Swiss outbred mice; conditions: after oral administration of 100 mg/kg of 1

Compound | Sol2.0 [1] | Sol6.5 [1] | metabolic reactions observed [2] | metabolic stability (in words) [2] | exposure of metabolite relative to 1, based on AUC0–24h [3]
CN1C(=O)N(c2ccc(F)c(C(F)(F)F)c2)C(=O)C1(C)C [Compd 2, 3-[4-Fluoro-3-(trifluoromethyl)phenyl]-1,5,5-trimethylimidazolidine-2,4-dione] | 50–100/50–100 μg/mL | 50–100/50–100 μg/mL | N-dealkylation metabolic reactions to form 1 | intermediate | –
CCN1C(=O)N(c2ccc(F)c(C(F)(F)F)c2)C(=O)C1(C)C [Compd 3, 1-Ethyl-3-[4-fluoro-3-(trifluoromethyl)phenyl]-5,5-dimethylimidazolidine-2,4-dione] | 50 to 100 µg/mL | 25 to 50 µg/mL | N-dealkylation metabolic reactions to form 1 | intermediate | –
CC1(C)C(=O)N(c2ccc(F)c(C(F)(F)F)c2)C(=O)N1CC#N [Compd 5, 2-[3-[4-Fluoro-3-(trifluoromethyl)phenyl]-5,5-dimethyl-2,4-dioxoimidazolidin-1-yl]acetonitrile] | 25–50/25–50 μg/mL | 25–50/25–50 μg/mL | – | – | –
CC1(C)C(=O)N(c2ccc(F)c(C(F)(F)F)c2)C(=O)N1CCc1ccccc1 [Compd 6, 3-[4-Fluoro-3-(trifluoromethyl)phenyl]-5,5-dimethyl-1-phenethylimidazolidine-2,4-dione] | 12.5 to 25 µg/mL | 25 to 50 µg/mL | – | unstable | –
CC1(C)C(=O)N(c2ccc(F)c(C(F)(F)F)c2)C(=O)N1S(C)(=O)=O [Compd 7, 3-[4-Fluoro-3-(trifluoromethyl)phenyl]-5,5-dimethyl-1-(methylsulfonyl)imidazolidine-2,4-dione] | 1.6–3.1/1.6–3.1 μg/mL | 1.6–3.1/1.6–3.1 μg/mL | – | highly stable | –
CC1(C)C(=O)N(c2ccc(F)c(C(F)(F)F)c2)C(=O)N1S(=O)(=O)c1ccccc1 [Compd 8, 3-[4-Fluoro-3-(trifluoromethyl)phenyl]-5,5-dimethyl-1-(phenylsulfonyl)imidazolidine-2,4-dione] | <1.6/<1.6 μg/mL | <1.6/<1.6 μg/mL | – | unstable | –
O=C1CNC(=O)N1c1ccc(F)c(C(F)(F)F)c1 [Compd 22] | >100/>100 μg/mL | >100/>100 μg/mL | – | high metabolic stabilities | –
CC1(CO)NC(=O)N(c2ccc(F)c(C(F)(F)F)c2)C1=O (centres unmarked) [Compd 25, 3-[4-Fluoro-3-(trifluoromethyl)phenyl]-5-(hydroxymethyl)-5-methylimidazolidine-2,4-dione] | 25–50/25–50 μg/mL | 25–50/25–50 μg/mL | – | high metabolic stabilities | approximately 3%
O=C1NC2(CCCC2)C(=O)N1c1ccc(F)c(C(F)(F)F)c1 [Compd 26, 3-[4-Fluoro-3-(trifluoromethyl)phenyl]-1,3-diazaspiro[4.4]nonane-2,4-dione] | 50–100/50–100 μg/mL | 50–100/50–100 μg/mL | – | decreased the metabolic stabilities | –
O=C1NC2(CCCCC2)C(=O)N1c1ccc(F)c(C(F)(F)F)c1 [Compd 27, 3-[4-Fluoro-3-(trifluoromethyl)phenyl]-1,3-diazaspiro[4.5]decane-2,4-dione] | 3.1–6.3/3.1–6.3 μg/mL | 3.1–6.3/3.1–6.3 μg/mL | – | decreased the metabolic stabilities | –
O=C1C2CCCN2C(=O)N1c1ccc(F)c(C(F)(F)F)c1 (centres unmarked) [Compd 28, 2-[4-Fluoro-3-(trifluoromethyl)phenyl]tetrahydro-1H-pyrrolo[1,2-c]imidazole-1,3(2H)-dione] | 25–50/25–50 μg/mL | 25–50/25–50 μg/mL | – | decreased the metabolic stabilities | –
CC1(C)CC(=O)N(c2ccc(F)c(C(F)(F)F)c2)C1=O [Compd 29, 1-[4-Fluoro-3-(trifluoromethyl)phenyl]-3,3-dimethylpyrrolidine-2,5-dione] | 12.5–25/12.5–25 μg/mL | 12.5–25/12.5–25 μg/mL | – | – | –
CC1(C)OC(=O)N(c2ccc(F)c(C(F)(F)F)c2)C1=O [Compd 30, 3-[4-Fluoro-3-(trifluoromethyl)phenyl]-5,5-dimethyloxazolidine-2,4-dione] | 3.1–6.3/3.1–6.3 μg/mL | 3.1–6.3/3.1–6.3 μg/mL | – | – | –
CC1(C)NC(=O)C(c2ccc(F)c(C(F)(F)F)c2)C1=O (centres unmarked) [Compd 31, 3-[4-Fluoro-3-(trifluoromethyl)phenyl]-5,5-dimethylpyrrolidine-2,4-dione] | 25 to 50 µg/mL | – | – | – | –
CC1(C)CN(c2ccc(F)c(C(F)(F)F)c2)C(=O)N1 [Compd 32, 1-[4-Fluoro-3-(trifluoromethyl)phenyl]-4,4-dimethylimidazolidin-2-one] | 12.5–25/12.5–25 μg/mL | 12.5–25/12.5–25 μg/mL | – | – | –
CC1(C)C(=O)NC(=O)N1c1ccc(F)c(C(F)(F)F)c1 [Compd 33, 1-[4-Fluoro-3-(trifluoromethyl)phenyl]-5,5-dimethylimidazolidine-2,4-dione] | 25–50/25–50 μg/mL | 25–50/25–50 μg/mL | – | – | –
CC1(C)CC(=O)N(c2ccc(F)c(C(F)(F)F)c2)C(=O)N1 [Compd 34, 3-[4-Fluoro-3-(trifluoromethyl)phenyl]-6,6-dimethyldihydropyrimidine-2,4(1H,3H)-dione] | 25–50/25–50 μg/mL | 25–50/25–50 μg/mL | – | – | –
CC1(C)CNC(=O)N(c2ccc(F)c(C(F)(F)F)c2)C1=O [Compd 35, 3-[4-Fluoro-3-(trifluoromethyl)phenyl]-5,5-dimethyldihydropyrimidine-2,4(1H,3H)-dione] | 12.5–25/12.5–25 μg/mL | 12.5–25/12.5–25 μg/mL | – | – | –
CC(C)(NC(=O)Nc1ccc(F)c(C(F)(F)F)c1)C(=O)O [Compd 36, 2-[3-[4-Fluoro-3-(trifluoromethyl)phenyl]ureido]-2-methylpropanoic acid] | 25 to 50 µg/mL | – | – | – | < 1%
